No end group written: not given here.

Assay [1] relates to West Nile virus. The experiment in a line: Protease, phospholipase, glycosidase, periodate and lectin pretreatment of Vero cells, then West Nile virus infection, plaque assay. Format: cell-based. Conditions: Vero cells pretreated 45 min at 25° C.; for effect of pretreatment of Vero cells on West Nile virus entry/infection: plaque assay at 12 hours p.i. The protocol: Cell monolayers (Vero cells or N2A) of approximately 5×10^6 cells were washed twice with phosphate buffer saline (PBS) before enzyme treatment. Cell monolayers were incubated with the proteases and phospholipases, glycosidases and lectins (as listed below) in PBS at a pH of 7.0 for 45 min at 25° C. […] Cell monolayers were then incubated with West Nile virus (MOI=10) at 37° C. for 1 hour. Excess virus particles were inactivated with sodium citrate buffer (pH 2.8) for 10 minutes and the cell monolayer washed twice with PBS. Vero cells were then incubated at 37° C. for 12 hours. At 12 hours p.i., virus titers from the treated samples were determined by plaque assays. Three independent experiments were conducted for each set of enzymes used.
The enzymes used were; Proteases: Proteinase K (EC 3.4.21.64) from Tritirachium album, concentration of 10 μg/ml, 1 μg/ml & 0.1 μg/ml; α-chymotrypsin (EC 3.4.21.1) from bovine pancreas, concentration of 10 μg/ml & 1 μg/ml; trypsin (EC 3.4.21.4) from bovine pancreas, concentration of 10 μg/ml, 1 μg/ml & 0.1 μg/ml; Bromelain (EC 3.4.22.32) from pineapple stem, concentration of 20 mUnit/ml, 2 mUnit/ml & 0.2 mUnit/ml; Papain (EC 3.4.22.2) from Carica papaya, concentration of 50 mUnit/ml & 10 mUnit/ml. Phospholipases: Phospholipase A2 (EC 3.1.1.4) from bovine pancreas, concentration of 1 UNIT/ml & 0.1 UNIT/ml; Phospholipase C (EC 3.1.1.4.3) from Clostridium perfringes, concentration of 10 UNIT/ml & 1 UNIT/ml; Phospholipase D (EC 3.1.4.4) from peanut, concentration of 100 UNIT/ml & 10 UNIT/ml; Glycosidases: Endoglycosidase H (EC 3.2.1.96) from Streptomyces plicatus, concentration of 100 mUNIT/ml & 10 mUNIT/ml; O-glycosidase (EC3.2.1.97) from Diploccus pneumoniae, concentration of 1 mUNIT/ml & 0.1 mUNIT/ml; α-mannosidase (EC 3.2.1.24) from almonds, concentration of 1000 μ/ml, 100 μg/ml & 10 μg/ml; α-Fucosidase (EC 3.2.1.11) from almond meal, concentration of 100 mUNIT/ml & 10 mUNIT/ml; Heparinase I (EC 4.2.2.7) and Heparinase III (EC 4.2.2.2.8) from Flavobacterium heparinum, concentration of 1 UNIT/ml & 0.1 UNIT/ml. Lectins: Concanavalin-A from Jack bean, wheat germ agglutinin from Triticum vulgaris, phytohemagglutinin from Phaseolus spp., concentration of 1000 μg/ml & 100 μg/ml; Sodium periodate concentration of 1 mM & 0.1 mM. Cell viability after enzyme treatment was assessed by Trypan blue staining and observation under phase contrast microscope BX 60.
The enzymes or chemicals were used at concentrations known to be effective in reducing the entry of other known viruses (Borrow and Oldstone, 1992; Ramos-Castaneda et al., 1997; Salas-Benito and del Angel, 1997; Martinez-Barragan and del Angel, 2001). Results are expressed as the number of log unit inhibition with respect to untreated samples. At the same time, cell viability after treatments was also assessed by Trypan blue exclusion method.

Assay [2] has as its system 105-kDa cell receptor protein. Description: Virus Overlay Protein Binding Assay (VOPBA) on Vero plasma membrane proteins. Conditions: for West Nile virus binding to treated membrane proteins of Vero cells (VOPBA): Vero plasma membrane proteins; for West Nile virus binding after removal of papain (VOPBA): Vero cells, papain 50 mU/ml 45 minutes, 0, 2 and 4 hours after removal, with or without cycloheximide 100 μg/ml.

For assay [3], the system named is 105-kDa cell receptor protein. The experiment in a line: Virus Overlay Protein Binding Assay (VOPBA) on N2A plasma membrane proteins.
Assay [4] deals with West Nile virus. The experiment in a line: Competitive physiological ligand binding assay, virus entry into Vero cells. Particulars: Vero cells incubated with ligand 1 hr, then radiolabeled virus 1 hr at 37° C. Format: cell-based. The protocol:
Competitive physiological ligand binding assay with fibronectin, vitronectin, heparin, chrondriotin sulphate, laminin and the peptides RGD1 and RGE1 reported in the sequence listing as SEQ ID NO: 6 and SEQ ID NO:7 was carried out. In particular Vero cells were incubated with different concentrations of ECM proteins, RGD peptides, or anti-integrin antibodies at 4° C. or 37° C. for 1 hr, washed, incubated with 50 μl of radiolabeled WNV, JEV at 37° C. for 1 hr and assessed for virus entry.

Another assay concerns Dengue virus. Description: Competitive inhibition of Dengue virus entry into Vero cells with soluble recombinant WNV envelope DIII. The class given is cell-based. Particulars: at high concentration used. The protocol:
(§1) Vero cells were first incubated with different concentration (5 to 100 μg/ml) of DIII protein or BSA for 30 min at 37° C. Excess or unbound protein is removed by washing thrice with PBS. Radiolabeled WNV or Dengue virus (250 plaque forming unit, PFU) is added and incubated for 1 h at 37° C. Virus entry into Vero cells was determined by radioactive counts from a scintillation counter.

Assay [5] deals with WNV. Description: Competitive inhibition of WNV entry into Vero cells with soluble recombinant WNV envelope DIII. Format: cell-based, West Nile virus. Conditions: 5 to 100 μg/ml, 30 min at 37° C. The protocol:
as §1

In assay [6] the test system is WNV. Conditions: Vero cells, EDTA 3-12 mM, 2 hrs at 37° C.

In the case of O-glycosidase, the “effect of pretreatment of Vero cells on West Nile virus entry/infection” value (“effect … on West Nile virus entry/infection” for short) with West Nile virus [1] is reported as “minimal effect”. Besides, the “West Nile virus binding to treated membrane proteins of Vero cells (VOPBA)” value (“West Nile virus binding … of Vero cells (VOPBA)” below) in assay [2] was “did not affect”. Also, the “West Nile virus binding to treated membrane proteins of N2A cells (VOPBA)” value (“West Nile virus binding … of N2A cells (VOPBA)” for short) in assay [3] is recorded as “did not affect”. On to Heparinase III, for which the “effect … on West Nile virus entry/infection” value with West Nile virus [1] was “minimal effect”. Regarding Concanavalin-A, the “effect … on West Nile virus entry/infection” value in the assay on West Nile virus [1] is “prevented the entry”. In assay [2], the “West Nile virus binding … of Vero cells (VOPBA)” value is given as “block the binding”.

In the case of α-mannosidase, the “effect … on West Nile virus entry/infection” value with West Nile virus [1] is reported as “significant inhibition”. Besides, the “West Nile virus binding … of Vero cells (VOPBA)” value in assay [2] is reported as “No binding”. In addition, the “West Nile virus binding … of N2A cells (VOPBA)” value in assay [3] is reported as “No binding”.

On to laminin, for which the “inhibition of West Nile virus infection by competitive ligands” value (“inhibition … by competitive ligands” for short) in the assay on West Nile virus [4] is on record as “partial inhibition”.

With phytohemagglutinin, the “West Nile virus binding … of Vero cells (VOPBA)” value in assay [2] is “no effect”. As for `[Na+].[O-][I+3]([O-])([O-])[O-]` [sodium periodate], the “effect … on West Nile virus entry/infection” value in the assay with West Nile virus [1] is recorded as “substantially reduced”. In addition, the “West Nile virus binding … of Vero cells (VOPBA)” value in assay [2] is reported as “reduced in a dosage-dependent manner”. “DIII protein: soluble His-tagged recombinant West Nile virus envelope domain III (350-390), comprising SEQ ID NO: 19 (SIPKLEIAGXFKDL; X: residue not identified in the source)”: the “inhibition of entry of Dengue virus into Vero cells” value in the assay with Dengue virus is listed as “slightly block”. In addition, the “inhibition of entry of WNV into Vero cells” value with WNV [5] is reported as “significantly blocked”. As to `O=C(O)CN(CCN(CC(=O)O)CC(=O)O)CC(=O)O` [EDTA], the “binding and subsequent entry of West Nile virus” value in the assay on WNV [6] is given as “did not block”.

With `C[C@@H]1C[C@@H]([C@H](O)CC2CC(=O)NC(=O)C2)C(=O)[C@@H](C)C1` [cycloheximide], the “West Nile virus binding after removal of papain (VOPBA)” value in assay [2] was “virus binding was also observed”. Take α-Fucosidase: the “effect … on West Nile virus entry/infection” value in the assay with West Nile virus [1] is on record as “minimal effect”. On the same count and under the same terms, next, Heparinase I: “minimal effect”. With `OCCS` [β-mercaptoethanol], the “West Nile virus binding … of Vero cells (VOPBA)” value in assay [2] was “did not disrupt virus binding”. Also, the “West Nile virus binding … of N2A cells (VOPBA)” value in assay [3] is “did not disrupt virus binding”. As for “RGD peptide: peptide RGD1 reported in the sequence listing as SEQ ID NO: 6 (RFDS; RGD1 amino acid sequence)”, the “inhibition … by competitive ligands” value in the assay on West Nile virus [4] is given as “partial inhibition”.

Turning to fibronectin, in the assay with West Nile virus [4], the “inhibition … by competitive ligands” value is “partial inhibition”.

B1: Papain (protein, UniProt P00784 134-345, looked up)
Papain: IPEYVDWRQKGAVTPVKNQGSCGSCWAFSAVVTIEGIIKIRTGNLNEYSEQELLDCDRRSYGCNGGYPWSALQLVAQYGIHYRNTYPYEGVQRYCRSREKGPYAAKTDGVRQVQPYNEGALLYSIANQPVSVVLEAAGKDFQLYRGGIFVGPCGNKVDHAVAAVGYGPNYILIKNSWGTGWGENGYIRIKRGTGNSYGVCGLYTSSFYPVKN
notes: Papain (EC 3.4.22.2) from Carica papaya, a cysteine endopeptidase
On to B1, for which the “log unit inhibition of West Nile virus infection” value in the assay on West Nile virus [1] (virus titers at 12 hours p.i., with respect to untreated samples) is given as ~5 log unit. In assay [2], the “West Nile virus binding after removal of papain (VOPBA)” value was “No virus binding” and the “West Nile virus binding … of Vero cells (VOPBA)” value is “abolished”. For the same molecule, the “West Nile virus binding … of N2A cells (VOPBA)” value in assay [3] is “abolished”.

B2: Endoglycosidase H (protein, UniProt P04067 43-313, looked up)
Endo-beta-N-acetylglucosaminid …: APAPVKQGPTSVAYVEVNNNSMLNVGKYTLADGGGNAFDVAVIFAANINYDTGTKTAYLHFNENVQRVLDNAVTQIRPLQQQGIKVLLSVLGNHQGAGFANFPSQQAASAFAKQLSDAVAKYGLDGVDFDDEYAEYGNNGTAQPNDSSFVHLVTALRANMPDKIISLYNIGPAASRLSYGGVDVSDKFDYAWNPYYGTWQVPGIALPKAQLSPAAVEIGRTSRSTVADLARRTVDEGYGVYLTYNLDGGDRTADVSAFTRELYGSEAVRTP
notes: Endoglycosidase H (EC 3.2.1.96) from Streptomyces plicatus
On to B2, for which the “effect … on West Nile virus entry/infection” value in the assay on West Nile virus [1] is “significant inhibition”. Besides, the “West Nile virus binding … of Vero cells (VOPBA)” value in assay [2] was “No binding”. For the same molecule, the “West Nile virus binding … of N2A cells (VOPBA)” value in assay [3] was “No binding”.

B3: vitronectin (protein, UniProt P04004 20-478, looked up)
Vitronectin: DQESCKGRCTEGFNVDKKCQCDELCSYYQSCCTDYTAECKPQVTRGDVFTMPEDEYTVYDDGEEKNNATVHEQVGGPSLTSDLQAQSKGNPEQTPVLKPEEEAPAPEVGASKPEGIDSRPETLHPGRPQPPAEEELCSGKPFDAFTDLKNGSLFAFRGQYCYELDEKAVRPGYPKLIRDVWGIEGPIDAAFTRINCQGKTYLFKGSQYWRFEDGVLDPDYPRNISDGFDGIPDNVDAALALPAHSYSGRERVYFFKGKQYWEYQFQHQPSQEECEGSSLSAVFEHFAMMQRDSWEDIFELLFWGRTSAGTRQPQFISRDWHGVPGQVDAAMAGRIYISGMAPRPSLAKKQRFRHRNRKGYRSQRGHSRGRNQNSRRPSRATWLSLFSSEESNLGANNYDDYRMDWLVPATCEPIQSVFFFSGDKYYRVNLRTRRVDTVDPPYPRSIAQYWLGCPAPGHL
notes: ECM protein, physiological ligand for integrin αVβ3
Take B3: the “inhibition … by competitive ligands” value with West Nile virus [4] is given as “partial inhibition”.

The record behind these values is patent US8168193B2, “Molecules, compositions, methods and kits for applications associated with flaviviruses” (National University of Singapore, priority 2003, dated 2012).
